Measured values published in the NIST ThermoML archive (doi:10.1016/j.fluid.2010.05.019).

Key:
[1] = 298.15 K, Liquid; for electrical conductivity: 101 kPa, Alternating current cell with electrodes; for viscosity / mass density: 101.33 kPa; for viscosity: Cone and plate viscometry; for mass density: Pycnometric method
[2] = wn = mass fraction of the nth substance listed; settings: 298.15 K, 101 kPa, Liquid, Alternating current cell with electrodes

Cc1ccc[n+](C)c1C.O=C[O-] [1,2,3-trimethylpyridinium formate]
[1]
Settings	electrical conductivity [S/m]	mass density [kg/m3]	viscosity [mPa·s]
–	0.68	1167.6	10

Cc1ccc[n+](C)c1C.O=C[O-] [1,2,3-trimethylpyridinium formate] + O
[2]
Settings	electrical conductivity [S/m]
w2 = 0	0.68
w2 = 0.0476	0.837
w2 = 0.0909	0.963
w2 = 0.1666	1.33
w2 = 0.1999	1.48
w2 = 0.2592	1.88
w2 = 0.3103	2.31
w2 = 0.3547	2.69
w2 = 0.4117	3.23
w2 = 0.4594	3.62
w2 = 0.4999	3.95
w2 = 0.5555	4.37
w2 = 0.5999	4.65
w2 = 0.6551	4.74
w2 = 0.7014	4.75
w2 = 0.7499	4.75
w2 = 0.7999	4.51
w2 = 0.8571	3.85
w2 = 0.9	3.13
w2 = 0.95	1.93

Cc1cccc[n+]1C.O=C[O-] [1,2-dimethylpyridinium formate]
[1]
Settings	electrical conductivity [S/m]	mass density [kg/m3]	viscosity [mPa·s]
–	1.04	1020.9	2.61

Cc1cccc[n+]1C.O=C[O-] [1,2-dimethylpyridinium formate] + O
[2]
Settings	electrical conductivity [S/m]
w2 = 0	1.04
w2 = 0.051	1.37
w2 = 0.0908	1.64
w2 = 0.1665	2.21
w2 = 0.2854	3.27
w2 = 0.333	3.77
w2 = 0.4114	4.52
w2 = 0.4441	4.74
w2 = 0.4997	5.26
w2 = 0.5451	5.56
w2 = 0.6151	5.98
w2 = 0.6549	6.16
w2 = 0.7056	6.23
w2 = 0.7617	6
w2 = 0.7998	5.68
w2 = 0.857	4.85
w2 = 0.8748	4.51
w2 = 0.8888	4.21
w2 = 0.8999	3.93
w2 = 0.909	3.7

CCCC(C)[NH3+].O=C[O-] (stereo unspecified) [2-pentanaminium formate]
[1]
Settings	electrical conductivity [S/m]	mass density [kg/m3]
–	0.036	1163

CCCC(C)[NH3+].O=C[O-] (stereo unspecified) [2-pentanaminium formate] + O
[2]
Settings	electrical conductivity [S/m]
w2 = 0	0.036
w2 = 0.056	0.121
w2 = 0.1005	0.197
w2 = 0.1623	0.342
w2 = 0.2793	0.847
w2 = 0.3676	1.38
w2 = 0.4366	1.92
w2 = 0.5375	2.8
w2 = 0.6078	3.3
w2 = 0.6595	3.51
w2 = 0.6992	3.6
w2 = 0.7561	3.57
w2 = 0.7999	3.4
w2 = 0.88	2.93
w2 = 0.9	2.73
w2 = 0.91	2.38
w2 = 0.925	2.13
w2 = 0.933	1.94
w2 = 0.943	1.71
w2 = 0.954	1.47
w2 = 0.967	1.13
w2 = 0.982	0.677

CC[NH+](C(C)C)C(C)C.O=C[O-] [ethyldiisopropylammonium formate]
[1]
Settings	electrical conductivity [S/m]	mass density [kg/m3]	viscosity [mPa·s]
–	0.586	1014.4	18

CC[NH+](C(C)C)C(C)C.O=C[O-] [ethyldiisopropylammonium formate] + O
[2]
Settings	electrical conductivity [S/m]
w2 = 0	0.586
w2 = 0.0625	0.88
w2 = 0.1176	1.13
w2 = 0.1667	1.39
w2 = 0.2105	1.67
w2 = 0.25	1.96
w2 = 0.3182	2.4
w2 = 0.3478	2.63
w2 = 0.4231	3.11
w2 = 0.4643	3.36
w2 = 0.5	3.51
w2 = 0.5588	3.86
w2 = 0.5833	3.93
w2 = 0.6053	3.96
w2 = 0.625	3.97
w2 = 0.6429	3.97
w2 = 0.6591	3.96
w2 = 0.7	3.97
w2 = 0.7115	3.97
w2 = 0.7222	3.96

C1CC[NH2+]C1.CC(=O)[O-] [pyrrolidinium acetate]
[1]
Settings	electrical conductivity [S/m]	mass density [kg/m3]	viscosity [mPa·s]
–	0.594	1054.3	30.2

C1CC[NH2+]C1.CC(=O)[O-] [pyrrolidinium acetate] + O
[2]
Settings	electrical conductivity [S/m]
w2 = 0	0.594
w2 = 0.0474	0.685
w2 = 0.0906	0.716
w2 = 0.1661	1.04
w2 = 0.1994	1.11
w2 = 0.2585	1.53
w2 = 0.3095	1.93
w2 = 0.3539	2.32
w2 = 0.393	2.64
w2 = 0.4585	3.24
w2 = 0.499	3.52
w2 = 0.5546	3.92
w2 = 0.599	4.09
w2 = 0.6543	4.3
w2 = 0.7007	4.37
w2 = 0.7554	4.43
w2 = 0.8033	4.23
w2 = 0.8328	4.02

C1CC[NH2+]C1.O=C[O-] [pyrrolidinium formate]
[1]
Settings	electrical conductivity [S/m]	viscosity [mPa·s]
–	3.29	2.5

C1CC[NH2+]C1.O=C[O-] [pyrrolidinium formate] + O
[2]
Settings	electrical conductivity [S/m]
w2 = 0	3.29
w2 = 0.0251	4.01
w2 = 0.0501	4.44
w2 = 0.0907	4.95
w2 = 0.1666	5.99
w2 = 0.2304	6.71
w2 = 0.2853	7.2
w2 = 0.3329	7.54
w2 = 0.3745	7.73
w2 = 0.4113	7.83
w2 = 0.4439	7.83
w2 = 0.4995	7.77
w2 = 0.5647	7.33
w2 = 0.5828	7.04
w2 = 0.6662	6.36
w2 = 0.7055	5.92
w2 = 0.7496	5.36
w2 = 0.7917	4.48
w2 = 0.8607	3.18
w2 = 0.9018	2.13
w2 = 0.9106	1.88

C1CC[NH2+]C1.CCCCCCC(=O)[O-] [pyrrolidinium heptanoate]
[1]
Settings	electrical conductivity [S/m]	mass density [kg/m3]
–	0.186	972.1

C1CC[NH2+]C1.CCCCCCC(=O)[O-] [pyrrolidinium heptanoate] + O
[2]
Settings	electrical conductivity [S/m]
w2 = 0	0.186
w2 = 0.0476	0.528
w2 = 0.0909	0.74
w2 = 0.1489	1.13
w2 = 0.2	1.41
w2 = 0.2593	1.8
w2 = 0.2857	1.97
w2 = 0.3103	2.12
w2 = 0.3333	2.22
w2 = 0.3548	2.31
w2 = 0.375	2.38
w2 = 0.3939	2.42
w2 = 0.403	2.44
w2 = 0.4203	2.47
w2 = 0.4444	2.53
w2 = 0.4595	2.56
w2 = 0.4872	2.59
w2 = 0.5	2.6
w2 = 0.5238	2.61
w2 = 0.5556	2.62
w2 = 0.608	2.47
w2 = 0.7011	2.12
w2 = 0.805	1.52
w2 = 0.905	0.728

C1CC[NH2+]C1.CCCCCC(=O)[O-] [pyrrolidinium hexanoate]
[1]
Settings	electrical conductivity [S/m]	mass density [kg/m3]	viscosity [mPa·s]
–	0.204	988	27.4

C1CC[NH2+]C1.CCCCCC(=O)[O-] [pyrrolidinium hexanoate] + O
[2]
Settings	electrical conductivity [S/m]
w2 = 0	0.204
w2 = 0.0476	0.568
w2 = 0.0909	0.95
w2 = 0.1489	1.54
w2 = 0.1667	1.73
w2 = 0.1837	1.91
w2 = 0.2	2.01
w2 = 0.2308	2.21
w2 = 0.2593	2.4
w2 = 0.2727	2.48
w2 = 0.2982	2.61
w2 = 0.3103	2.65
w2 = 0.3333	2.76
w2 = 0.3548	2.86
w2 = 0.3846	2.91
w2 = 0.403	2.91
w2 = 0.4521	2.92
w2 = 0.5	2.89
w2 = 0.5294	2.85
w2 = 0.5506	2.81
w2 = 0.601	2.53
w2 = 0.7015	1.96
w2 = 0.8004	1.21
w2 = 0.9002	0.551

C1CC[NH2+]C1.O=[N+]([O-])[O-] [pyrrolidinium nitrate]
[1]
Settings	electrical conductivity [S/m]	viscosity [mPa·s]
–	5.01	5.2

C1CC[NH2+]C1.O=[N+]([O-])[O-] [pyrrolidinium nitrate] + O
[2]
Settings	electrical conductivity [S/m]
w2 = 0	5.01
w2 = 0.0476	6.79
w2 = 0.0908	7.74
w2 = 0.1665	9.11
w2 = 0.1999	9.7
w2 = 0.2591	10.4
w2 = 0.3101	10.9
w2 = 0.3546	11.1
w2 = 0.3937	11.3
w2 = 0.4592	11.2
w2 = 0.4998	10.8
w2 = 0.5553	10.9
w2 = 0.5998	10.4
w2 = 0.655	9.97
w2 = 0.7013	9.42
w2 = 0.7999	7.86
w2 = 0.8504	6.1
w2 = 0.9074	4.5
w2 = 0.96	2.5
w2 = 0.9987	0.122

C1CC[NH2+]C1.CCCCCCCCC(=O)[O-] [pyrrolidinium nonanoate]
[1]
Settings	electrical conductivity [S/m]	mass density [kg/m3]	viscosity [mPa·s]
–	0.064	931.5	74.4

C1CC[NH2+]C1.CCCCCCCCC(=O)[O-] [pyrrolidinium nonanoate] + O
[2]
Settings	electrical conductivity [S/m]
w2 = 0	0.064
w2 = 0.0476	0.073
w2 = 0.0909	0.122
w2 = 0.1667	0.295
w2 = 0.2	0.392
w2 = 0.2593	0.579
w2 = 0.3103	0.754
w2 = 0.3548	0.915
w2 = 0.3939	1.07
w2 = 0.4595	1.29
w2 = 0.5	1.44
w2 = 0.5556	1.61
w2 = 0.5833	1.68
w2 = 0.6	1.73
w2 = 0.6154	1.76
w2 = 0.6296	1.79
w2 = 0.6429	1.81
w2 = 0.6552	1.84
w2 = 0.6667	1.85
w2 = 0.7143	1.87
w2 = 0.8065	1.63
w2 = 0.902	1.08

C1CC[NH2+]C1.CCCCCCCC(=O)[O-] [pyrrolidinium octanoate]
[1]
Settings	electrical conductivity [S/m]	mass density [kg/m3]	viscosity [mPa·s]
–	0.08	949.5	36.5

C1CC[NH2+]C1.CCCCCCCC(=O)[O-] [pyrrolidinium octanoate] + O
[2]
Settings	electrical conductivity [S/m]
w2 = 0	0.08
w2 = 0.0475	0.223
w2 = 0.0908	0.347
w2 = 0.1664	0.635
w2 = 0.1997	0.795
w2 = 0.2589	1.06
w2 = 0.31	1.31
w2 = 0.3544	1.58
w2 = 0.3935	1.7
w2 = 0.459	1.93
w2 = 0.4996	2.06
w2 = 0.5551	2.18
w2 = 0.5996	2.23
w2 = 0.6292	2.23
w2 = 0.6548	2.22
w2 = 0.7011	2.17
w2 = 0.7558	2.03
w2 = 0.7724	1.97
w2 = 0.8037	1.83
w2 = 0.8212	1.68

O=C[O-].c1ccc2[nH+]cccc2c1 [quinolinium formate]
[1]
Settings	electrical conductivity [S/m]	mass density [kg/m3]	viscosity [mPa·s]
–	0.415	1153	8.2

O=C[O-].c1ccc2[nH+]cccc2c1 [quinolinium formate] + O
[2]
Settings	electrical conductivity [S/m]
w2 = 0	0.415
w2 = 0.0566	0.621
w2 = 0.0909	0.854
w2 = 0.1667	1.38
w2 = 0.2	1.59
w2 = 0.2593	2.01
w2 = 0.3103	2.47
w2 = 0.3548	2.84
w2 = 0.3939	3.1
w2 = 0.4444	3.49
w2 = 0.4595	3.59
w2 = 0.5	3.81
w2 = 0.5652	4.11
w2 = 0.6	4.23
w2 = 0.6552	4.3
w2 = 0.7059	4.26
w2 = 0.75	4.12
w2 = 0.8	3.94
w2 = 0.8571	3.37
w2 = 0.9	2.75

O [water]
Settings	electrical conductivity [S/m]
[1]	0.0001

O [water] + C1CC[NH2+]C1.CC(=O)[O-]
Settings	electrical conductivity [S/m]
[2], w1 = 1	0.0001

O [water] + C1CC[NH2+]C1.CCCCCC(=O)[O-]
Settings	electrical conductivity [S/m]
[2], w1 = 1	0.0001

O [water] + C1CC[NH2+]C1.CCCCCCC(=O)[O-]
Settings	electrical conductivity [S/m]
[2], w1 = 1	0.0001

O [water] + C1CC[NH2+]C1.CCCCCCCC(=O)[O-]
Settings	electrical conductivity [S/m]
[2], w1 = 1	0.0001

O [water] + C1CC[NH2+]C1.CCCCCCCCC(=O)[O-]
Settings	electrical conductivity [S/m]
[2], w1 = 1	0.0001

O [water] + C1CC[NH2+]C1.O=C[O-]
Settings	electrical conductivity [S/m]
[2], w1 = 1	0.0001

O [water] + C1CC[NH2+]C1.O=[N+]([O-])[O-]
Settings	electrical conductivity [S/m]
[2], w1 = 1	0.0001

O [water] + CCCC(C)[NH3+].O=C[O-]
Settings	electrical conductivity [S/m]
[2], w1 = 1	0.0001

O [water] + CC[NH+](C(C)C)C(C)C.O=C[O-]
Settings	electrical conductivity [S/m]
[2], w1 = 1	0.0001

O [water] + Cc1ccc[n+](C)c1C.O=C[O-]
Settings	electrical conductivity [S/m]
[2], w1 = 1	0.0001

O [water] + Cc1cccc[n+]1C.O=C[O-]
Settings	electrical conductivity [S/m]
[2], w1 = 1	0.0001

O [water] + O=C[O-].c1ccc2[nH+]cccc2c1
Settings	electrical conductivity [S/m]
[2], w1 = 1	0.0001
